This is an account of results in publication PMC10803253, “Structural insights into the iron nitrogenase complex” (Nature Structural & Molecular Biology, 2023).

Assay [1] has as its target T1, Fe nitrogenase catalytic component, AnfD FeFeco site, in the Anf(DGK)2(H2)2 complex (Rhodobacter capsulatus, UniProt D5ANJ7).
T1 construct: C-terminal Strep-tag II on AnfD, N-terminal His6-tag on AnfH, no linkers; plasmid expression in R. capsulatus MM0436; AlF3-trapped Anf(DGK)2(H2)2; with Nitrogenase iron-iron protein beta chain; Nitrogenase iron-iron protein delta chain; Nitrogenase iron protein (iron-iron nitrogenase reductase)
Briefly: cryo-EM structure ([…] Å). The class given is binding. Conditions: bidentate ligand of FeFeco iron Fe8 via 2-hydroxyl and 2-carboxyl; co-purified; ADP·AlF3-trapped complex.

In assay [2] the target is T2, Fe nitrogenase reductase component AnfH2 in the Anf(DGK)2(H2)2 complex (Rhodobacter capsulatus, UniProt D5ANJ6).
T2 construct: gene anfH; N-terminal His6-tag on AnfH, C-terminal Strep-tag II on AnfD, no linkers; plasmid expression in R. capsulatus MM0436; AlF3-trapped Anf(DGK)2(H2)2, ~360 kDa by mass photometry; with Nitrogenase iron-iron protein alpha chain; Nitrogenase iron-iron protein beta chain; Nitrogenase iron-iron protein delta chain
T2 sequence (D5ANJ6 1-275): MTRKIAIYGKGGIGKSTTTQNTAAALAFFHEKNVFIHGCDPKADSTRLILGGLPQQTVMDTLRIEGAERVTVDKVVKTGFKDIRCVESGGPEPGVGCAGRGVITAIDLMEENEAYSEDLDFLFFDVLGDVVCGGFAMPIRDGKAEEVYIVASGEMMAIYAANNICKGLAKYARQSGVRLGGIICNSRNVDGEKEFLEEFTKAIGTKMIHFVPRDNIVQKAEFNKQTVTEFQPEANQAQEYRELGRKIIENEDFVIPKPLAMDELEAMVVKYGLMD
T2 sequence (D5ANJ7 1-527 partner): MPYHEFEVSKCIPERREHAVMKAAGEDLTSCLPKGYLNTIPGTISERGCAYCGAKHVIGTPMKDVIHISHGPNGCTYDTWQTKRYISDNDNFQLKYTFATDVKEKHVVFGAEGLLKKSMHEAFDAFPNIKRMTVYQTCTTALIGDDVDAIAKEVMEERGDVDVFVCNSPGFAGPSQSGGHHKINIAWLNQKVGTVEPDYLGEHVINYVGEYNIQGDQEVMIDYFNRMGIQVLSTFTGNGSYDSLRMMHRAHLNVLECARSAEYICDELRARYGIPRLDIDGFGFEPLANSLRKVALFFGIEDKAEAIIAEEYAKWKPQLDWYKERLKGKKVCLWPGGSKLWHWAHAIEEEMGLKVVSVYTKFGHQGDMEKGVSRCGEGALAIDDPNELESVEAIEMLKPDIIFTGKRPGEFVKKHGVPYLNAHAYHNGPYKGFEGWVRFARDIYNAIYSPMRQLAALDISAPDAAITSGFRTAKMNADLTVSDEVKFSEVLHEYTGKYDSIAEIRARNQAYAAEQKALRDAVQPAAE
T2 sequence (D5ANJ9 1-460 partner): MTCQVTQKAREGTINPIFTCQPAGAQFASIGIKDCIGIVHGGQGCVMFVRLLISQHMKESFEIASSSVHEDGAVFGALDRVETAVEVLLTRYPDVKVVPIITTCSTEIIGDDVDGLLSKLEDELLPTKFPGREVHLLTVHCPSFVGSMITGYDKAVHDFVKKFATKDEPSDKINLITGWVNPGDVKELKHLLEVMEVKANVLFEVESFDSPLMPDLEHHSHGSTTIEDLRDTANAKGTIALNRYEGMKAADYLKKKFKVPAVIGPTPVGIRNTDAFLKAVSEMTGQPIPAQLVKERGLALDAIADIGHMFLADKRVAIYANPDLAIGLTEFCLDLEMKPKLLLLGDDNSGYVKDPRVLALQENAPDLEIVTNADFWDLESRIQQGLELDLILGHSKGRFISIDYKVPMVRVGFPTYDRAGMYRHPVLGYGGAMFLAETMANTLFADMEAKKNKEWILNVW
T2 sequence (D5ANJ8 1-115 partner): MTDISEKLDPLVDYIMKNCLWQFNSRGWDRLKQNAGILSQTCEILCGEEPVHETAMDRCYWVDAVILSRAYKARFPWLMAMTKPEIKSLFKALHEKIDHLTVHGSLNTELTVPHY
The experiment in a line: cryo-EM structure ([…] Å). In kind it is binding. The following applies: covalent (Cys97 and Cys132 of two AnfH subunits); co-purified.

T1 sequence (D5ANJ9 entry or part of it): as the sequence (D5ANJ9 1-460 partner) above
T1 sequence (D5ANJ6 entry or part of it, further chain): as the sequence (D5ANJ6 1-275) above
T1 sequence (D5ANJ7 entry or part of it): as the sequence (D5ANJ7 1-527 partner) above
T1 sequence (D5ANJ8 entry or part of it, further chain): as the sequence (D5ANJ8 1-115 partner) above

With `O=C(O)CC[C@@](O)(CC(=O)O)C(=O)O` [(R)-homocitrate], the “cryo-EM structure (2.35 Å)” value in assay [1] is on record as “additionally coordinated by a bidentate (R)-homocitrate ligand that binds the iron atom”.

As to `[S]12[Fe]3[S]4[Fe]1[S]1[Fe]2[S]3[Fe]41` [[Fe4S4] cluster], the “cryo-EM structure (2.35 Å)” value in assay [2] is “we observed an [Fe4S4] cluster coordinated by Cys97 and Cys132”.
